From US20220152004A1, “HETEROCYCLYL(PHENYL)METHANOL COMPOUNDS USEFUL IN THE TREATMENT OF HYPERGLYCAEMIA” (ATROGI AB, priority 2019, published 2022)
Where a name gives a salt, the structure may show the parent alone.

Assays:
L6-myotubes [1] = assay: Glucose uptake (3H-2-deoxy-glucose) in differentiated L6-myotubes; format: cell-based; settings: agonist final concentration 1×10^−5; for Emax at 10 µM: differentiated L6-myotubes, Table 1, read-out: Biological example 1 (glucose uptake, activity compared to that of isoproterenol)
Experimental: (§1) L6-myoblasts were grown in Dulbecco's Modified Eagle's Medium (DMEM) containing 4.5 g/l glucose supplemented with 10% fetal bovine serum, 2 mM L-Glutamine, 50 U/ml penicillin, 50 μg/ml streptomycin and 10 mM HEPES. Cells were plated at 1×10^5 cells per ml in 24-well plates. After reaching 90% confluence the cells were grown in medium containing 2% FBS for 7 days where upon cells differentiated into myotubes.
Differentiated L6-myotubes were serum-starved overnight in medium containing 0,5% fatty-acid free BSA and stimulated with agonist, final concentration 1×10^−5. After 1 h 40 min cells were washed with warm, glucose free medium or PBS and another portion of agonist was added to glucose free medium. After 20 min the cells were exposed to 50 nM ^3H-2-deoxy-glucose for another 10 min before washed in ice cold glucose free medium or PBS and lysed in 0.2 M NaOH for 1 h in 60° C.

L6-myotubes [2] = assay: Measurement of intracellular cAMP levels in differentiated L6-myotubes; format: cell-based; settings: 0.25 h; agonist final concentration 1×10^−5, 15 min; differentiated cells; Table 1; read-out: Biological example 2 (intracellular cAMP levels, activity compared to that of isoproterenol)
Experimental: as §1
Differentiated cells were serum-starved overnight and stimulated with agonist, final concentration 1×10^−5, for 15 min in stimulation buffer (HBSS supplemented with 1% BSA, 5 mM HEPES and 1 mM IBMX, pH 7,4) The medium was then aspirated and to end the reaction 100 μL of 95% EtOH was added to each well of a 24-well plate and cells were kept in −20° C. over night. The EtOH was let to evaporate and 500 μL of lysis buffer (1% BSA, 5 mM HEPES and 0,3% Tween-20, pH 7,4) was added to each well before put in −80° C. for 30 min and then kept in −20° C. Intracellular cAMP levels were detected using an alpha screen cAMP kit (6760635D from Perkin Elmer). The activity for each compound is compared to that of isoproterenol.

Structure (SMILES) | Emax at 10 µM (L6-myotubes [1]) [%] | Emax at 10 µM (L6-myotubes [2]) [%] | Biological example 3 (L6-myotubes [1]; Table 2, glucose uptake assay of Biological Example 1)
CC1(C)CCC[C@H]([C@H](O)c2cccc(F)c2)N1 [Example 1, (R)-((R)-6,6-Dimethylpiperidin-2-yl)(3-fluorophenyl)methanol] | 50 to 75 | < 25 | 
CC1(C)CCC[C@H]([C@@H](O)c2cccc(F)c2)N1 [Example 2, (S)-((R)-6,6-Dimethylpiperidin-2-yl)(3-fluorophenyl)methanol] | < 25 | < 25 | 
CC1(C)CCC[C@H]([C@H](O)c2cccc(O)c2)N1 [Example 3, 3-((R)-((R)-6,6-Dimethylpiperidin-2-yl)(hydroxy)methyl)phenol acetate] | 25 to 50 | < 25 | 
CC1(C)CCC[C@H]([C@@H](O)c2cccc(O)c2)N1 [Example 4, 3-((S)-((R)-6,6-Dimethylpiperidin-2-yl)(hydroxy)methyl)phenol acetate] | 25 to 50 | < 25 | 
CC1(C)CCC[C@H]([C@H](O)c2ccccc2Cl)N1 [Example 5, (R)-(2-Chlorophenyl)((R)-6,6-dimethylpiperidin-2-yl)methanol hydrochloride] | 25 to 50 | < 25 | 
CC1(C)CCC[C@H]([C@@H](O)c2ccccc2Cl)N1 [Example 6, (S)-(2-Chlorophenyl)((R)-6,6-dimethylpiperidin-2-yl)methanol hydrochloride] | > 75 | < 25 | 
CC1(C)CCC[C@H]([C@H](O)c2cccc(Cl)c2)N1 [Example 7, hydrochloride] | 25 to 50 | < 25 | 
CC1(C)CCC[C@H]([C@H](O)c2ccccc2F)N1 [Example 9, (R)-((R)-6,6-Dimethylpiperidin-2-yl)(2-fluorophenyl)methanol hydrochloride] | 50 to 75 | < 25 | 
CC1(C)CCC[C@H]([C@@H](O)c2ccccc2F)N1 [Example 10, (S)-((R)-6,6-Dimethylpiperidin-2-yl)(2-fluorophenyl)methanol hydrochloride] | > 75 | 25 to 50 | 
CC1(C)CC[C@H]([C@H](O)c2cccc(F)c2)N1 [Example 11, (R)-((R)-5,5-Dimethylpyrrolidin-2-yl)(3-fluorophenyl)methanol hydrochloride] | > 75 | < 25 | 
CC1(C)CC[C@H]([C@@H](O)c2cccc(F)c2)N1 [Example 12, (S)-((R)-5,5-Dimethylpyrrolidin-2-yl)(3-fluorophenyl)methanol hydrochloride] | 25 to 50 | < 25 | 
CC1(C)CC[C@@H]([C@H](O)c2cccc(F)c2)N1 [Example 13, (R)-((S)-5,5-Dimethylpyrrolidin-2-yl)(3-fluorophenyl)methanol hydrochloride] | < 25 | < 25 | 
CC1(C)CC[C@@H]([C@@H](O)c2cccc(F)c2)N1 [Example 14, (S)-((S)-5,5-Dimethylpyrrolidin-2-yl)(3-fluorophenyl)methanol hydrochloride] | 25 to 50 | < 25 | 
CC1(C)CC[C@H]([C@H](O)c2cccc(O)c2)N1 [Example 15, (R)-((R)-5,5-Dimethylpyrrolidin-2-yl)(hydroxy)methyl)phenol acetate] | > 75 | < 25 | 
CC1(C)CC[C@H]([C@@H](O)c2cccc(O)c2)N1 [Example 16, (S)-((R)-5,5-Dimethylpyrrolidin-2-yl)(hydroxy)methyl)phenol acetate] | 50 to 75 | < 25 | 
CC1(C)CC[C@@H]([C@H](O)c2cccc(O)c2)N1 [Example 17] | 25 to 50 | < 25 | 
CC1(C)CC[C@@H]([C@@H](O)c2cccc(O)c2)N1 [Example 18] | < 25 | < 25 | 
CC1(C)CC[C@H]([C@H](O)c2ccccc2F)N1 [Example 19, (R)-((R)-5,5-Dimethylpyrrolidin-2-yl)(2-fluorophenyl)methanol hydrochloride] | > 75 | < 25 | 
CC1(C)CC[C@H]([C@@H](O)c2ccccc2F)N1 [Example 20, (S)-((R)-5,5-Dimethylpyrrolidin-2-yl)(2-fluorophenyl)methanol hydrochloride] | 25 to 50 | < 25 | 
CC1(C)CC[C@H]([C@H](O)c2ccc(F)cc2)N1 [Example 21, (R)-((R)-5,5-Dimethylpyrrolidin-2-yl)(4-fluorophenyl)methanol hydrochloride] | 50 to 75 | < 25 | 
CC1(C)CC[C@H]([C@@H](O)c2ccc(F)cc2)N1 [Example 22, (S)-((R)-5,5-Dimethylpyrrolidin-2-yl)(4-fluorophenyl)methanol hydrochloride] | < 25 | < 25 | 
CC1(C)CC[C@H]([C@H](O)c2ccccc2Cl)N1 [Example 23, (R)-(2-Chlorophenyl)((R)-5,5-dimethylpyrrolidin-2-yl)methanol hydrochloride] | > 75 | < 25 | 
CC1(C)CC[C@H]([C@@H](O)c2ccccc2Cl)N1 [Example 24, (S)-(2-Chlorophenyl)((R)-5,5-dimethylpyrrolidin-2-yl)methanol hydrochloride] | < 25 | < 25 | 
CC1(C)CC[C@H]([C@H](O)c2cccc(Cl)c2)N1 [Example 25, (R)-(3-Chlorophenyl)((R)-5,5-dimethylpyrrolidin-2-yl)methanol hydrochloride] | > 75 | < 25 | 
CCCC1(CCC)CC[C@H]([C@H](O)c2cccc(F)c2)N1 [Example 27, (R)-((R)-5,5-Dipropylpyrrolidin-2-yl)(3-fluorophenyl)methanol hydrochloride] | 50 to 75 | < 25 | 
CCCC1(CCC)CC[C@H]([C@@H](O)c2cccc(F)c2)N1 [Example 28, (S)-((R)-5,5-Dipropylpyrrolidin-2-yl)(3-fluorophenyl)methanol hydrochloride] | < 25 | < 25 | 
O[C@H](c1cccc(F)c1)[C@H]1CCC2(CC2)N1 [Example 29, (R)-(3-Fluorophenyl)((R)-4-azaspiro[2.4]heptan-5-yl)methanol hydrochloride] | 50 to 75 | < 25 | 
O[C@@H](c1cccc(F)c1)[C@H]1CCC2(CC2)N1 [Example 30, (S)-(3-Fluorophenyl)((R)-4-azaspiro[2.4]heptan-5-yl)methanol hydrochloride] | 25 to 50 | < 25 | 
O[C@H](c1cccc(F)c1)[C@H]1CCC2(CCCC2)N1 [Example 31, (R)-(3-Fluorophenyl)((R)-1-azaspiro[4.4]nonan-2-yl)methanol maleate] | 50 to 75 | 25 to 50 | 
CC1(C)CC[C@H]([C@@H](O)c2cc(F)c(N)c(F)c2)N1.Cl [Example 51, (S)-(4-Amino-3,5-difluorophenyl)((R)-5,5-dimethylpyrrolidin-2-yl)methanol hydrochloride] |  |  | +++ (more than 75% of that of isoproterenol)
